Values joined by “and” are separate entries in the source; they are usually repeats but may differ in a detail not shown here. Equal values may be shown once. Inconclusive results and toxic doses are left out. How the source made its calls: active means survival T/C of 150% or more; inactive means T/C below 125% in these data.
System: P388 leukemia ip, CD2F1 mice, survival T/C
Assay: NCI In Vivo Anticancer Drug Screen. Data for tumor model P388 Leukemia (intraperitoneal) in CD2F1 (CDF1) mice
Details: endpoint: median survival time, higher = longer survival
Summary of the method: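 Mice carrying the transplanted tumor received test compound or vehicle. Survival was recorded in each group, and the value is the treated-group measurement divided by that of the vehicle-treated control group.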

[1] = dose: 50.0 mg/kg/injection, schedule: Q01DX009 (ip), vehicle: saline with Tween-80
[2] = dose: 100.0 mg/kg/injection, schedule: Q01DX009 (ip), vehicle: saline with Tween-80
[3] = dose: 200.0 mg/kg/injection, schedule: Q01DX009 (ip), vehicle: saline with Tween-80
[4] = dose: 400.0 mg/kg/injection, schedule: Q01DX009 (ip), vehicle: saline with Tween-80
[5] = dose: 25.0 mg/kg/injection, schedule: Q01DX009 (ip), vehicle: Klucel (hydroxypropylcellulose) (HPC)
[6] = dose: 50.0 mg/kg/injection, schedule: Q01DX009 (ip), vehicle: Klucel (hydroxypropylcellulose) (HPC)
[7] = dose: 100.0 mg/kg/injection, schedule: Q01DX009 (ip), vehicle: Klucel (hydroxypropylcellulose) (HPC)
[8] = dose: 200.0 mg/kg/injection, schedule: Q01DX009 (ip), vehicle: Klucel (hydroxypropylcellulose) (HPC)
[9] = dose: 100.0 mg/kg/injection, schedule: Q01DX001 (ip), vehicle: Klucel (hydroxypropylcellulose) (HPC)
[10] = dose: 200.0 mg/kg/injection, schedule: Q01DX001 (ip), vehicle: Klucel (hydroxypropylcellulose) (HPC)
[11] = dose: 400.0 mg/kg/injection, schedule: Q01DX001 (ip), vehicle: Klucel (hydroxypropylcellulose) (HPC)
[12] = dose: 50.0 mg/kg/injection, schedule: Q01DX005 (ip), vehicle: Klucel (hydroxypropylcellulose) (HPC)
[13] = dose: 100.0 mg/kg/injection, schedule: Q01DX005 (ip), vehicle: Klucel (hydroxypropylcellulose) (HPC)
[14] = dose: 200.0 mg/kg/injection, schedule: Q01DX005 (ip), vehicle: Klucel (hydroxypropylcellulose) (HPC)
[15] = dose: 25.0 mg/kg/injection, schedule: Q01DX005 (ip), vehicle: Klucel (hydroxypropylcellulose) (HPC)
[16] = dose: 100.0 mg/kg/injection, schedule: Q01DX005 (ip), vehicle: saline with Tween-80
[17] = dose: 200.0 mg/kg/injection, schedule: Q01DX005 (ip), vehicle: saline with Tween-80
[18] = dose: 60.0 mg/kg/injection, schedule: Q01DX005 (ip), vehicle: saline with Tween-80
[19] = dose: 120.0 mg/kg/injection, schedule: Q01DX005 (ip), vehicle: saline with Tween-80
[20] = dose: 240.0 mg/kg/injection, schedule: Q01DX005 (ip), vehicle: saline with Tween-80

Measured: T/C

COC(=O)c1cc(C)cc(O)c1C
inactive: [1] 102 % of control | [2] 101 % of control | [3] 99 % of control | [4] 101 % of control

O=c1nc(-c2ccco2)sc(=O)[nH]1
inactive: [5] 109 % of control | [6] 106 % of control and 117 % of control | [7] 113 % of control | [8] 105 % of control and 121 % of control

Cn1cc(N)c(=O)[nH]c1=O
inactive: dose: 50.0 mg/kg/injection, schedule: Q01DX005 (ip), vehicle: saline 98 % of control | dose: 100.0 mg/kg/injection, schedule: Q01DX005 (ip), vehicle: saline 101 % of control | dose: 200.0 mg/kg/injection, schedule: Q01DX005 (ip), vehicle: saline 102 % of control

CC(=O)Nc1ccc2nc3n(c(=O)c2c1)CCCC3
inactive: [9] 101 % of control | [10] 101 % of control | [11] 100 % of control

C[CH2][Sn]1([CH2]C)[O]C2C(OC)OC3COC(c4ccccc4)OC3C2[O]1 (stereo not given)
inactive: dose: 1.56 mg/kg/injection, schedule: Q04DX003 (ip), vehicle: saline 101 % of control and 107 % of control | dose: 3.12 mg/kg/injection, schedule: Q04DX003 (ip), vehicle: saline 104 % of control and 116 % of control | dose: 6.25 mg/kg/injection, schedule: Q04DX003 (ip), vehicle: saline 101 % of control and 116 % of control and 117 % of control | dose: 12.5 mg/kg/injection, schedule: Q04DX003 (ip), vehicle: saline 104 % of control and 116 % of control

OCC(O)C(O)C(O)c1nn(-c2ccccc2)c2nc3ccc(Cl)cc3nc12 (stereo not given)
inactive: [12] 90 % of control | [13] 90 % of control | [14] 89 % of control

CC(=O)OC1=CC(OC(C)=O)C2C(=O)C3=C(C(=O)c4ccccc4C3=O)C(=O)C2C1 (stereo not given)
inactive: [9] 105 % of control | [10] 102 % of control | [11] 93 % of control

CC1=C(C#N)C(=O)NC(C)C1 (stereo not given)
inactive: [15] 108 % of control | [12] 101 % of control | [13] 108 % of control | [16] 98 % of control | [14] 104 % of control | [17] 99 % of control | dose: 400.0 mg/kg/injection, schedule: Q01DX005 (ip), vehicle: saline with Tween-80 102 % of control | dose: 500.0 mg/kg/injection, schedule: Q01DX001 (ip), vehicle: saline with Tween-80 100 % of control | dose: 1000.0 mg/kg/injection, schedule: Q01DX001 (ip), vehicle: saline with Tween-80 99 % of control | dose: 2000.0 mg/kg/injection, schedule: Q01DX001 (ip), vehicle: saline with Tween-80 108 % of control

C=CCSc1nc2ccc(N3C(=O)C=CC3=O)cc2s1
inactive: dose: 6.25 mg/kg/injection, schedule: Q01DX009 (ip), vehicle: Klucel (hydroxypropylcellulose) (HPC) 111 % of control | dose: 12.5 mg/kg/injection, schedule: Q01DX009 (ip), vehicle: Klucel (hydroxypropylcellulose) (HPC) 104 % of control and 113 % of control | [5] 108 % of control and 113 % of control

COc1ccc(C(=Nc2ccc(C)cc2)c2ccc([N+](=O)[O-])cc2)cc1
inactive: [2] 90 % of control | dose: 100.0 mg/kg/injection, schedule: Q04DX003 (ip), vehicle: saline with Tween-80 95 % of control | [3] 90 % of control | dose: 200.0 mg/kg/injection, schedule: Q04DX003 (ip), vehicle: saline with Tween-80 95 % of control | [4] 90 % of control | dose: 400.0 mg/kg/injection, schedule: Q04DX003 (ip), vehicle: saline with Tween-80 100 % of control

ClC1=NC(Cl)C(Cl)=N/C1=N\c1ncn[nH]1 (stereo not given)
inactive: dose: 4.4 mg/kg/injection, schedule: Q04DX003 (ip), vehicle: saline with Tween-80 100 % of control | dose: 6.6 mg/kg/injection, schedule: Q04DX003 (ip), vehicle: saline with Tween-80 100 % of control | dose: 10.0 mg/kg/injection, schedule: Q04DX003 (ip), vehicle: saline with Tween-80 90 % of control | dose: 15.0 mg/kg/injection, schedule: Q04DX003 (ip), vehicle: saline with Tween-80 104 % of control

O=C(O)C1(NO)CCCCC1
inactive: [5] 105 % of control | [6] 107 % of control and 110 % of control and 115 % of control | [1] 107 % of control and 119 % of control | [7] 105 % of control and 108 % of control and 119 % of control | [2] 120 % of control and 123 % of control | [8] 111 % of control and 87 % of control | [3] 99 % of control and 119 % of control | dose: 400.0 mg/kg/injection, schedule: Q01DX009 (ip), vehicle: Klucel (hydroxypropylcellulose) (HPC) 110 % of control and 96 % of control | dose: 600.0 mg/kg/injection, schedule: Q01DX009 (ip), vehicle: Klucel (hydroxypropylcellulose) (HPC) 101 % of control and 98 % of control

Cc1cc(Cl)cc2[s+]snc12
inactive: [18] 100 % of control | [19] 101 % of control | [20] 92 % of control

COc1cc2c(cc1C(CC(C)O)c1cc(OC)c(OC)c(OC)c1)OCO2 (stereo not given)
inactive: [18] 100 % of control | [19] 90 % of control | [20] 98 % of control

CC(SCc1ccccc1)C(N)C(=O)O (stereo not given)
inactive: [1] 100 % of control | [2] 103 % of control | [3] 91 % of control

CCCCCCC1N=C(N)N=C(N)N1c1ccc(Cl)cc1 (stereo not given)
inactive: dose: 6.25 mg/kg/injection, schedule: Q01DX005 (ip), vehicle: Klucel (hydroxypropylcellulose) (HPC) 100 % of control | dose: 12.5 mg/kg/injection, schedule: Q01DX005 (ip), vehicle: Klucel (hydroxypropylcellulose) (HPC) 110 % of control | [15] 106 % of control

CC1(C)OC(=O)C(Cc2c[nH]c3ccccc23)C(=O)O1
inactive: [1] 108 % of control | [2] 100 % of control | [3] 94 % of control

CC(C)[N+](=C1O[B-](c2ccccc2)(c2ccccc2)O[B-]1(c1ccccc1)[C+]1CCCCC1)C(C)C (stereo not given)
inactive: dose: 50.0 mg/kg/injection, schedule: Q01DX005 (ip), vehicle: saline with Tween-80 102 % of control | [16] 108 % of control | [17] 116 % of control

CC(C)(C=O)CNC(C)(C)C
inactive: dose: 25.0 mg/kg/injection, schedule: Q01DX009 (ip), vehicle: saline with Tween-80 110 % of control | [1] 100 % of control and 108 % of control | [2] 103 % of control and 105 % of control | [3] 91 % of control and 103 % of control

CC(=O)OCC(=O)[C@@]12OC(C)(C)O[C@@H]1C[C@H]1[C@@H]3CC(C=O)=C4C=C(OCCCl)CC[C@]4(C)[C@@]3(F)[C@@H](O)C[C@@]12C
inactive: dose: 0.39 mg/kg/injection, schedule: Q01DX009 (ip), vehicle: Klucel (hydroxypropylcellulose) (HPC) 106 % of control | dose: 0.78 mg/kg/injection, schedule: Q01DX009 (ip), vehicle: Klucel (hydroxypropylcellulose) (HPC) 113 % of control | dose: 1.56 mg/kg/injection, schedule: Q01DX009 (ip), vehicle: Klucel (hydroxypropylcellulose) (HPC) 115 % of control

CCCCN(c1ccc(Br)cc1)c1nc(N)nc(N)c1N=O
inactive: [15] 103 % of control | [12] 99 % of control | [13] 102 % of control | [14] 98 % of control

From PubChem BioAssay AID330 (DTP/NCI, 2004)
